This note sets out measurements from ChEMBL document CHEMBL1201862, “PubChem BioAssay data set” (2004).

Structures are written as SMILES.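 Protocol summary: plate cells (96-well), add compound at 5 concentrations, incubate 48 h, interpolate endpoints linearly. Abbreviation: GI50, concentration required for 50% inhibition of growth.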 The source made the active and inactive calls. Cut-off read from the data, not from the text of the source: active = GI50 up to about 1.1 µM and inactive = higher.

Among the test systems are DMS-114; DMS-273; HOP-18; KM-20L2; LXFL 529; M19-MEL; RXF 631; SNB-78; XF498.
Experiment in all cases: inhibition of tumour cell growth, NCI panel, 48 h

`C=CC(=O)N1C/C(=C\c2ccc(Cl)c(Cl)c2)C(=O)/C(=C/c2ccc(Cl)c(Cl)c2)C1`: the GI50 with DMS-114 is 0.12 µM (active); in the experiment with DMS-273 it was 0.155 µM (active); with HOP-18 it was 0.362 µM (active); in the experiment with KM-20L2 it was 0.216 µM (active); in the experiment on LXFL 529, 0.127 µM (active); in the experiment on M19-MEL, 0.184 µM (active). In addition, the GI50 with RXF 631 is 0.449 µM (active); in the experiment with SNB-78, 0.261 µM (active).

Regarding `CC(C)(C)C(C#N)(C#N)c1ccc(C(C#N)(C#N)C(C)(C)C)nn1`, the GI50 with DMS-114, with DMS-273, in the experiment on KM-20L2, with LXFL 529, with M19-MEL and in the experiment on RXF 631 was > 100 µM (inactive) in each case. Besides, the GI50 in the experiment with SNB-78 is 74.8 µM (inactive); in the experiment on XF498, 38.6 µM (inactive).

With `Cc1ccc(C(c2c(O)c3ccccc3n(-c3ccccc3)c2=O)c2c(O)c3ccccc3n(-c3ccccc3)c2=O)cc1`, the GI50 in the experiment with DMS-114, in the experiment on DMS-273, in the experiment with HOP-18, in the experiment with KM-20L2, in the experiment with LXFL 529 and with M19-MEL was > 100 µM (inactive) in each case. In addition, the GI50 in the experiment on SNB-78 and in the experiment with XF498 was > 100 µM (inactive) in each case.

For the compound `C=CC/C=C/Cc1csc(C(C)(C)C(O)C/C=C/C(=C)CCNC(=O)OC)n1` (stereo not drawn), the GI50 with DMS-114 was < 0.0132 µM (active); in the experiment on DMS-273 it was 3.26 µM (inactive); in the experiment with KM-20L2 it was 51.2 µM (inactive); in the experiment with LXFL 529, 21.2 µM (inactive); in the experiment with M19-MEL, 25.5 µM (inactive); in the experiment on XF498, > 50 µM (inactive).

For `Cn1c(=O)c2/c(n(C)c1=O)=N\C=c1\c(=O)n(C)c(=O)n(C)\c1=N\C=2`, the GI50 in the experiment on DMS-114, with HOP-18, in the experiment on KM-20L2, in the experiment on LXFL 529, with M19-MEL and with RXF 631 was > 100 µM (inactive) throughout. The GI50 with SNB-78 is 76.2 µM (inactive).

Consider `Cc1cc2c(c3oc(C4(C)OC4C4OC4C)cc(=O)c13)C(=O)c1c(O)c(C3CC(C)(N(C)C)C(O)C(C)O3)cc(C3CC(N(C)C)C(O)C(C)O3)c1C2=O` (stereo not drawn), for which the GI50 in the experiment on DMS-273 is 0.0025 µM (active); in the experiment on HOP-18, 0.00069 µM (active); in the experiment on LXFL 529 it was 0.000227 µM (active); with RXF 631, 0.000161 µM (active); with SNB-78, 0.0025 µM (active).

In the case of `CN(C(=O)c1ccc(Cl)cc1)C(=S)N1CCN(c2ccccn2)CC1`, the GI50 was 69.8 µM (inactive) in the experiment with DMS-114; > 100 µM (inactive) in the experiment on DMS-273; > 100 µM (inactive) in the experiment with HOP-18; > 100 µM (inactive) with KM-20L2; > 100 µM (inactive) in the experiment on LXFL 529; > 100 µM (inactive) in the experiment on M19-MEL. Moreover, in the experiment with SNB-78, the GI50 is > 100 µM (inactive).

For the compound `Cc1cccc(C)c1NC(=O)/C(Cl)=C(/Cl)C(=O)O`, the GI50 was 21.3 µM (inactive) with DMS-114; 18.6 µM (inactive) in the experiment with DMS-273; 20.3 µM (inactive) with HOP-18; 6.92 µM (inactive) with KM-20L2; 8.11 µM (inactive) with LXFL 529; 19.9 µM (inactive) with M19-MEL. For the same compound, the GI50 was 28.2 µM (inactive) in the experiment on SNB-78 and 15 µM (inactive) with XF498.

Consider `Cn1c2ccccc2c2cc(-c3ccccc3)c3c(c21)C(=O)c1ccccc1C3=O`, for which the GI50 in the experiment with DMS-114 was 12.5 µM (inactive); with DMS-273, 17 µM (inactive); in the experiment with LXFL 529, 14.3 µM (inactive); in the experiment with M19-MEL, 2.25 µM (inactive); with RXF 631, 34 µM (inactive); with SNB-78, 15.1 µM (inactive). The GI50 in the experiment on XF498 is 14.6 µM (inactive).

`COc1ccccc1NC(=O)CC(=O)N/N=C/c1ccc(N(CCC#N)S(=O)(=O)c2ccccc2)cc1`: the GI50 in the experiment with DMS-114, with HOP-18, in the experiment with KM-20L2, in the experiment with LXFL 529, in the experiment with M19-MEL and in the experiment on SNB-78 was > 100 µM (inactive) in each case. Further, in the experiment with XF498, the GI50 is > 100 µM (inactive).

For the compound `Nn1c(CCCl)nc2c(Br)cc(Br)cc2c1=O`, the GI50 with DMS-114 is 22.5 µM (inactive); in the experiment with DMS-273, 30.3 µM (inactive); in the experiment with HOP-18, 33.3 µM (inactive); with KM-20L2, 26 µM (inactive); with LXFL 529 it was 24.7 µM (inactive); in the experiment with M19-MEL, 32.1 µM (inactive). Further, the GI50 was 34 µM (inactive) with SNB-78 and 20.6 µM (inactive) in the experiment on XF498.

Turning to `O=C(CCc1nnc(S)[nH]1)Nc1cc(Cl)c(Cl)cc1Cl`, the GI50 with DMS-114, in the experiment on DMS-273, with KM-20L2, with LXFL 529, in the experiment with M19-MEL and with RXF 631 was > 100 µM (inactive) each time. Also, the GI50 with SNB-78 and in the experiment with XF498 was > 100 µM (inactive) throughout.

Consider `COc1ccc(CNc2nc3c(NC(C)=O)cc(C(F)(F)F)cc3nc2-c2ccccc2)cc1OC`, for which the GI50 in the experiment with DMS-114 was 15.2 µM (inactive); with DMS-273, 21.9 µM (inactive); in the experiment on KM-20L2, > 100 µM (inactive); in the experiment with LXFL 529, 16.4 µM (inactive); in the experiment with M19-MEL, > 100 µM (inactive); with SNB-78 it was 10.7 µM (inactive). Further, the GI50 with XF498 was 78 µM (inactive).

For the compound `Cc1cccc(C(C)(C)C)c1NC(=O)C(C#N)C1=C(Cl)C(=O)c2ccccc2C1=O` (stereo not drawn), the GI50 with DMS-114 was 16.6 µM (inactive); in the experiment with DMS-273 it was 17.8 µM (inactive); in the experiment with HOP-18 it was 12 µM (inactive); with KM-20L2 it was 20.5 µM (inactive); with LXFL 529, 15.5 µM (inactive); in the experiment with SNB-78, 14.4 µM (inactive). Besides, in the experiment with XF498, the GI50 is 16 µM (inactive).

Take `COC(=O)C1C(/C=C/c2ccoc2)ON2CCC[C@@H]12` (stereo partly drawn): the GI50 in the experiment with DMS-114 is > 100 µM (inactive); in the experiment with DMS-273 it was 36.2 µM (inactive); with HOP-18, 70.3 µM (inactive); with KM-20L2, > 100 µM (inactive); with LXFL 529, > 100 µM (inactive); with M19-MEL it was > 100 µM (inactive). Further, the GI50 with SNB-78 was > 100 µM (inactive).

In the case of `Cc1ccc(S(=O)OC2C3CC4CC(C3)CC2C4)cc1` (stereo not drawn), the GI50 in the experiment on DMS-114, in the experiment on DMS-273, in the experiment with HOP-18, with KM-20L2, in the experiment with LXFL 529 and in the experiment with M19-MEL was > 100 µM (inactive) throughout. For the same compound, the GI50 in the experiment with SNB-78 and in the experiment on XF498 was > 100 µM (inactive) in each case.

With `CN/N=C(\C(=O)Nc1ccc([N+](=O)[O-])cc1[N+](=O)[O-])C1NC(=O)NC1=O` (stereo not drawn), the GI50 in the experiment on DMS-114 was > 100 µM (inactive); in the experiment with DMS-273, 32.2 µM (inactive); in the experiment with HOP-18 it was > 100 µM (inactive); with KM-20L2, > 100 µM (inactive); in the experiment with LXFL 529, > 100 µM (inactive); in the experiment with M19-MEL it was > 100 µM (inactive). Also, in the experiment with SNB-78, the GI50 was > 100 µM (inactive).

As for `C=C1C(=O)OC2CC3(C)C=CC(=O)C(=C)C3CC12` (stereo not drawn), the GI50 in the experiment on DMS-114 is 3.61 µM (inactive); in the experiment with DMS-273 it was 1.22 µM (inactive); with HOP-18, 3.06 µM (inactive); in the experiment on KM-20L2, 2.28 µM (inactive); with LXFL 529, 0.664 µM (active); with M19-MEL, 1.69 µM (inactive). In addition, the results for the GI50 in the experiment on SNB-78 and in the experiment on XF498 were 2.43 µM (inactive) and 1.72 µM (inactive), respectively.

Regarding `CCCCN(CCCC)CC(C(=O)Nc1ccc([N+](=O)[O-])cc1[N+](=O)[O-])/C(C)=N\NC(=O)c1ccncc1` (stereo not drawn), the GI50 in the experiment on DMS-114, in the experiment with DMS-273, in the experiment with KM-20L2, with LXFL 529, in the experiment on M19-MEL and in the experiment on RXF 631 was > 100 µM (inactive) in each case. In addition, the GI50 in the experiment with SNB-78 and in the experiment on XF498 was > 100 µM (inactive) in each case.

For `COc1cccc(/C(C=O)=C(\Cl)c2ccc(OC)c(OC)c2)c1`, the GI50 is 15.1 µM (inactive) with DMS-114; 14 µM (inactive) in the experiment on DMS-273; 13.6 µM (inactive) in the experiment with HOP-18; 19.7 µM (inactive) in the experiment with KM-20L2; 11.6 µM (inactive) in the experiment with LXFL 529; 11.3 µM (inactive) in the experiment with M19-MEL. Further, the GI50 in the experiment on SNB-78 was 13 µM (inactive); in the experiment on XF498, 17.3 µM (inactive).

In the case of `Clc1ccc2ns[s+]c2c1`, the GI50 in the experiment with DMS-114 was 2.61 µM (inactive); in the experiment on DMS-273, 0.815 µM (active); in the experiment with HOP-18, 11.7 µM (inactive); in the experiment on KM-20L2, 0.317 µM (active); with LXFL 529 it was 0.166 µM (active); in the experiment with M19-MEL, 1.97 µM (inactive). Moreover, the GI50 with SNB-78 and with XF498 was > 100 µM (inactive) each time.

Consider `COC(=O)C1=Cc2c(cc(OC)c(OC)c2OC)[C@H](c2ccc(OC)c(OC)c2OC)C1C(=O)OC` (stereo partly drawn), for which the GI50 with DMS-114 is 61.7 µM (inactive); in the experiment on DMS-273, 29.5 µM (inactive); in the experiment on KM-20L2 it was > 100 µM (inactive); in the experiment with LXFL 529 it was > 100 µM (inactive); in the experiment on M19-MEL it was > 100 µM (inactive); in the experiment with RXF 631 it was 71.8 µM (inactive). The GI50 with SNB-78 is 40.8 µM (inactive).

As to `CC1OC(OC2C[C@](O)(C(=O)CF)Cc3c(O)c4c(c(O)c32)C(=O)c2ccccc2C4=O)CC(N)C1O` (stereo partly drawn), the GI50 in the experiment with DMS-114 was < 0.0109 µM (active); with DMS-273, < 0.01 µM (active); with KM-20L2, 0.0574 µM (active); in the experiment on LXFL 529, 0.0596 µM (active); in the experiment on M19-MEL it was 0.0178 µM (active); in the experiment on SNB-78, 0.241 µM (active). Moreover, the GI50 in the experiment on XF498 was < 0.0164 µM (active).

As for `NC(=O)NO` [HYDROXYUREA], the GI50 with DMS-273 is 137 µM (inactive); in the experiment with HOP-18 it was 933 µM (inactive); in the experiment with KM-20L2 it was 436 µM (inactive); in the experiment with LXFL 529, 713 µM (inactive); in the experiment on M19-MEL, 1420 µM (inactive); with SNB-78 it was 2160 µM (inactive). In addition, the GI50 in the experiment with XF498 is 820 µM (inactive).

As to `O=C(O)Cc1cccc2c(=O)cc(-c3ccccc3)oc12` [MITOFLAXONE], the GI50 is 227 µM (inactive) in the experiment on DMS-114; > 250 µM (inactive) with DMS-273; 156 µM (inactive) with HOP-18; > 250 µM (inactive) in the experiment with KM-20L2; > 250 µM (inactive) in the experiment on M19-MEL; > 250 µM (inactive) in the experiment with SNB-78. For the same compound, the GI50 in the experiment on XF498 was 33.7 µM (inactive).
